Data set [1] has as its system human non-cancerous hepatocytes (Hep). The data set can be described thus: In vitro cytotoxicity testing (MTT assay), hepatocytes. It counts as cell-based. Conditions: 24 h drug exposure, no recovery. How it is done:
(§1) A2780 ovarian carcinoma, A2780R cisplatin-resistant ovarian carcinoma, HOS osteosarcoma, G361 malignant melanoma, MCF7 breast carcinoma, A549 lung carcinoma, HeLa cervix carcinoma, 22Rv1 prostate carcinoma and Caco-2 colorectal carcinoma human cancer cell lines were purchased from the European Collection of Cell Cultures (ECACC), while the human non-cancerous hepatocytes (Hep) were supplied by Biopredic Intl. The cell lines were cultured, according to the suppliers`instructions, in RPMI-1640 medium supplemented with 10% of fetal calf serum, 1% of 2 mM glutamine, and 1% penicillin/streptomycin. All cell lines were grown as adherent monolayers at 37°C and 5% CO2 in a humidified atmosphere.
(§2) The cells were seeded to 96-well culture plates, pre-incubated in drug-free media at 37°C for 24 h and treated typically with the 0.01–50.0 μM solutions, prepared from the stock solutions by dilution with medium, for 24 h at 37°C. […] In parallel with compounds 1–8 and the reference drugs, the cells were also treated with vehicle (0.1% DMF in medium; negative control) and Triton X-100 (1%; positive control) to assess the minimal and maximal cell damage, respectively. The MTT assay was used to determine the cell viability; MTT = 3-(4,5-dimethylthiazol-2-yl)-2,5-diphenyltetrazolium bromide. A concentration of the formed dye was evaluated spectrophotometrically at 540 nm (TECAN, Schoeller Instruments LLC).
(§3) The data were expressed as the percentage of viability, where 100% and 0% represents the treatments with negative and positive controls, respectively. The data from the cancer cells were acquired from three independent experiments (conducted in triplicate) using cells from different passages. The resulting IC50 values (μM) were calculated from viability curves and the results are presented as arithmetic mean±SD.
A general note: Tetrazolium dyes change colour on reduction, which living cells bring about.

A further data set concerns HOS osteosarcoma cells. The data set can be described thus: In vitro cytotoxicity testing (MTT assay), HOS. Conditions: 24 h drug exposure, no recovery, MTT; read-out: IC50±SD, HOS. It is filed as cell-based, human. How it is done:
as §1, §2, §3

Data set [2] concerns 22Rv1 prostate carcinoma cells. The experiment in a line: In vitro cytotoxicity testing (MTT assay), 22Rv1. It is filed as cell-based, human. Conditions: 24 h drug exposure, no recovery, read-out: IC50±SD, 22Rv1. The method, then:
as §1, §2, §3

In data set [3] the test system is MCF7 breast carcinoma cells. The experiment in a line: In vitro cytotoxicity testing (MTT assay), MCF7. Conditions: 24 h drug exposure, no recovery, read-out: IC50±SD, MCF7. It counts as cell-based, human. The method, then:
as §1, §2, §3

Data set [4] has as its system A2780R cisplatin-resistant ovarian carcinoma cells. The experiment in a line: In vitro cytotoxicity testing (MTT assay), A2780R. It is filed as cell-based, human. The method, then:
(§4) All cell lines were grown as adherent monolayers at 37°C and 5% CO2 in a humidified atmosphere.
(§5) The MTT assay was used to determine the cell viability; MTT = 3-(4,5-dimethylthiazol-2-yl)-2,5-diphenyltetrazolium bromide. A concentration of the formed dye was evaluated spectrophotometrically at 540 nm (TECAN, Schoeller Instruments LLC).
as §3

Data set [5] deals with HeLa cervix carcinoma cells. The experiment in a line: In vitro cytotoxicity testing (MTT assay), HeLa. To be noted: 24 h drug exposure, no recovery, read-out: IC50±SD, HeLa. It is filed as cell-based, human. How it is done: as §1, §2, §3
Data set [6] relates to A549 lung carcinoma cells. The data set can be described thus: In vitro cytotoxicity testing (MTT assay), A549. It is filed as cell-based, human. To be noted: 24 h drug exposure, no recovery, read-out: IC50±SD, A549. The method, then:
as §1, §2, §3

The subject of data set [7] is Caco-2 colorectal carcinoma cells. The data set can be described thus: In vitro cytotoxicity testing (MTT assay), Caco-2. To be noted: 24 h drug exposure, no recovery, MTT; read-out: IC50±SD, Caco-2. It counts as cell-based, human. How it is done: as §4, §5, §3
Data set [8] has as its system G361 malignant melanoma cells. The experiment in a line: In vitro cytotoxicity testing (MTT assay), G361. It is filed as cell-based, human. Conditions: 24 h drug exposure, no recovery, read-out: IC50±SD, G361. How it is done: as §1, §2, §3
Data set [9] relates to A2780 ovarian carcinoma cells. The data set can be described thus: In vitro cytotoxicity testing (MTT assay), A2780. It is filed as cell-based, human. To be noted: 24 h drug exposure, no recovery, MTT; read-out: IC50±SD, A2780. How it is done:
as §4, §5, §3

Another data set deals with A2780 cells. The data set can be described thus: Cellular accumulation of platinum (ICP-MS). It is filed as cell-based, human. Conditions: 24 h treatment at IC50 concentration. How it is done:
The A2780 cells were seeded in 6-well culture plates (1×10^6 cells per well) and incubated overnight (37°C and 5% CO2 in a humidified incubator). […] The cells were washed with PBS (2 × 2 mL) after 24 h treatment, harvested by trypsin treatment, collected and centrifuged in PBS. The supernatants were discarded after centrifugation and pellets were digested in 500 μL of nitric acid (3 min at 150°C) using a microwave system Monowave300 (Anton Paar). Solutions were diluted with 4.5 mL of water and the platinum content was determined by ICP-MS. The obtained values were corrected for adsorption effects. The experiments were conducted in triplicate and the results are presented as arithmetic mean±SD.

The nature of data set [10]: Hydrophobicity studies (logP determination), octanol/water, ICP-MS. It is filed as physicochemical. To be noted: octanol/water (0.2 M KI). The method, then:
Complexes 4 and 6 (1 mmol) were ultrasonicated for 15 min in 10 mL of OSW, centrifuged and supernatants were collected. Aliquots (5 mL) of the obtained OSW solutions of complexes 4 and 6 were added to WSO (5 mL) and shaken for 2 h at ambient temperature. After that, the mixtures were centrifuged and aqueous layer was separated carefully. The platinum concentration was determined from OSW aliquots taken before ([Pt]OSWb) and after ([Pt]OSWa) partition by ICP-MS (ICP-MS spectrometer 7700x, Agilent) with the obtained values corrected for the adsorption effects. logP = log([Pt]WSO/[Pt]OSWa) equation was used for the partition coefficients calculation; [Pt]WSO = [Pt]OSWb−[Pt]OSWa. The experiments were conducted in triplicate.

In data set [11] the test system is A2780, T-47D human breast carcinoma and WiDr human colon carcinoma cell lines. Details: method as in PMID 24900222. Conditions: cited from earlier work.
Data set [12] deals with HCT116 colon carcinoma cells. To be noted: cited from earlier work.
Data set [13] relates to HT29 colon carcinoma cells. To be noted: cited from earlier work.
For the next data set, the system named is HeLa cells. Further details: method as in PMID 22225466. Conditions: cited from earlier work.

What is called IC50 is the concentration at which inhibition is half-maximal. As usually defined, the logP is a log measure of how a compound divides between an organic and an aqueous phase. `Ic1c[nH]c2c1ccc[n+]2[Pt-2]([I])([I])[n+]1cccc2c(I)c[nH]c21` [Complex 4, cis-[PtI2(3Iaza)2]]: the IC50 in [1] stood at 11.8 µM; in the data set on HOS osteosarcoma cells, 2800 ± 1000 nM; in data set [2], 4.5 ± 1.6 µM; in data set [3], 1800 ± 300 nM; in [4] (24 h drug exposure, no recovery, MTT, read-out: IC50±SD, A2780R), 2600 ± 800 nM; in data set [5], 6.2 ± 0.7 µM. Besides, the IC50 came out at 9.8 ± 1.3 µM in data set [6], 3.3 ± 0.1 µM in [7], 1600 ± 700 nM in data set [8] and 2300 ± 1100 nM in data set [9]. Also, the “resistance factor (RF), IC50(A2780R)/IC50(A2780)” value in [4] (24 h IC50 values) came out at 1.13. In the data set on A2780 cells, this compound had a cellular accumulation of 354±63 pmol Pt/10^6 A2780 cells. The compound also returned a logP in [10] of 0.41.
In the case of `CC(C)N.CC(C)N.[I][Pt][I]` [cis-[PtI2(ipam)2]], the “times more potent than cisplatin” value in data set [11] is given as at most 11 times.
For `O=C1[O][Pt]2([NH][C@@H]3CCCC[C@H]3[NH]2)[O]C1=O` [oxaliplatin], the IC50 in data set [12] was 300 nM; in data set [13], 700 nM.
For `C[NH+](C)[Pt-2]([I])([I])[NH+](C)C` [trans-[PtI2(L1)2]], the “factor by which activity of cisplatin is exceeded” value in the data set with HeLa cells is recorded as about 6.

(Values after paper PMC5131915, “Platinum(II) Iodido Complexes of 7-Azaindoles with Significant Antiproliferative Effects: An Old Story Revisited with Unexpected Outcomes” (PLoS ONE, 2016).)
